# Data reported in patent US11987586B1 (TAKEDA PHARMACEUTICAL COMPANY LIMITED, priority 2022, dated 2024).
# Target: T1, human OX2 receptor (Homo sapiens, UniProt O43614)
# T1 construct: expressed in transfected cells
# T1 sequence (O43614 1-444): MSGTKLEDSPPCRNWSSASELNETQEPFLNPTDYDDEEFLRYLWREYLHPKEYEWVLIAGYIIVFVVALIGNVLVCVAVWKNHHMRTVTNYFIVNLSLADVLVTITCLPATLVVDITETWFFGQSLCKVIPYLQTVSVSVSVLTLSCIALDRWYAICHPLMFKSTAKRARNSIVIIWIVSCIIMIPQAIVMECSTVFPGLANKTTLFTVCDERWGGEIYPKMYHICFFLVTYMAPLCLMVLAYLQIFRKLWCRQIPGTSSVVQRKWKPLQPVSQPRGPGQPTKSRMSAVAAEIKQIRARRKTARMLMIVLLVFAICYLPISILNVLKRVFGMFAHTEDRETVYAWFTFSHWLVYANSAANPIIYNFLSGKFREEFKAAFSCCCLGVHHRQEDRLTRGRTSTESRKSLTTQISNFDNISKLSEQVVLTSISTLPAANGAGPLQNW
# Assay: Measurement of orexin type 2 receptor agonist activity (calcium fluorescence, Fluo-4, FDSS)
# Format: cell-based
# Conditions: 3 uM test compound; CHO cells expressing human OX2 receptor; DMSO = 0%, 10 nM orexin A (human) = 100%
# Outline: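 Agonist activity (%) was normalised to the response to 10 nM final human orexin A (100%) and to the DMSO vehicle (0%). The response was measured as the Fluo-4 calcium signal, read kinetically over 1 min 40 s after compound addition to Fluo-4/probenecid-loaded stable CHO-K1 clones expressing human OX2 (aa 1-444).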
row,Structure (SMILES),"OX2R agonist activity (3 uM, %) [%]"
1,"CS(=O)(=O)N[C@@H]1Cn2c(cn(-c3noc4cc(OC(F)F)cc(-c5c(F)cc(F)cc5F)c34)c2=O)C1(F)F [Example 113, N-{(6R)-2-[6-(difluoromethoxy)-4-(2,4,6-trifluorophenyl)-1,2-benzoxazol-3-yl]-7,7-difluoro-3-oxo-2,5,6,7-tetrahydro-3H-pyrrolo[1,2-c]imidazol-6-yl}methanesulfonamide]",102
2,"CCS(=O)(=O)N[C@@H]1Cn2c(cn(-c3noc4cc(F)cc(-c5c(F)cc(F)cc5F)c34)c2=O)C1(F)F [Example 116, N-{(6R)-7,7-difluoro-2-[6-fluoro-4-(2,4,6-trifluorophenyl)-1,2-benzoxazol-3-yl]-3-oxo-2,5,6,7-tetrahydro-3H-pyrrolo[1,2-c]imidazol-6-yl}ethanesulfonamide]",93
3,"Cc1cc(-c2c(F)cccc2F)c2c(-n3cc4n(c3=O)C[C@@H](NS(C)(=O)=O)C4(F)F)noc2n1 [Example 118, N-{(6R)-2-[4-(2,6-difluorophenyl)-6-methyl[1,2]oxazolo[5,4-b]pyridin-3-yl]-7,7-difluoro-3-oxo-2,5,6,7-tetrahydro-3H-pyrrolo[1,2-c]imidazol-6-yl}methanesulfonamide]",91
4,"Cc1cc2onc(N3C[C@H]4N(C[C@@H](NS(C)(=O)=O)C4(F)F)C3=O)c2c(-c2c(F)cc(F)cc2F)c1F [Example 119, N-{(6R,7aR)-7,7-difluoro-2-[5-fluoro-6-methyl-4-(2,4,6-trifluorophenyl)-1,2-benzoxazol-3-yl]-3-oxohexahydro-1H-pyrrolo[1,2-c]imidazol-6-yl}methanesulfonamide]",105
5,"CCS(=O)(=O)N[C@@H]1Cn2c(cn(-c3noc4cc(F)c(F)c(-c5c(F)cc(F)cc5F)c34)c2=O)C1(F)F [Example 121, N-{(6R)-2-[5,6-difluoro-4-(2,4,6-trifluorophenyl)-1,2-benzoxazol-3-yl]-7,7-difluoro-3-oxo-2,5,6,7-tetrahydro-3H-pyrrolo[1,2-c]imidazol-6-yl}ethanesulfonamide]",93
6,"CCS(=O)(=O)N[C@@H]1CN2C(=O)N(c3noc4cc(F)cc(-c5c(F)cc(F)cc5F)c34)C[C@@H]2C1(F)F [Example 124, N-{(6R,7aR)-7,7-Difluoro-2-[6-fluoro-4-(2,4,6-trifluorophenyl)-1,2-benzoxazol-3-yl]-3-oxohexahydro-1H-pyrrolo[1,2-c]imidazol-6-yl}ethanesulfonamide]",101
7,"Cc1cc(-c2c(F)cccc2F)c2c(N3C[C@H]4N(C[C@@H](NS(C)(=O)=O)C4(F)F)C3=O)noc2c1 [Example 126, N-{(6R,7aR)-2-[4-(2,6-Difluorophenyl)-6-methyl-1,2-benzoxazol-3-yl]-7,7-difluoro-3-oxohexahydro-1H-pyrrolo[1,2-c]imidazol-6-yl}methanesulfonamide]",97

# Results, then the compound that gave them:
row,"OX2R agonist activity (3 uM, %) [%]",Structure (SMILES)
1,102,"Cc1cc(-c2c(F)cc(F)cc2F)c2c(-n3cc4n(c3=O)C[C@@H](NS(C)(=O)=O)C4(F)F)noc2c1 [Example 127, N-{(6R)-7,7-difluoro-2-[6-methyl-4-(2,4,6-trifluorophenyl)-1,2-benzoxazol-3-yl]-3-oxo-2,5,6,7-tetrahydro-3H-pyrrolo[1,2-c]imidazol-6-yl}methanesulfonamide]"
2,98,"CS(=O)(=O)N[C@@H]1Cn2c(cn(-c3noc4cc(CO)cc(-c5c(F)cc(F)cc5F)c34)c2=O)C1(F)F [Example 128, N-{(6R)-7,7-difluoro-2-[6-(hydroxymethyl)-4-(2,4,6-trifluorophenyl)-1,2-benzoxazol-3-yl]-3-oxo-2,5,6,7-tetrahydro-3H-pyrrolo[1,2-c]imidazol-6-yl}methanesulfonamide]"
3,99,"CS(=O)(=O)N[C@@H]1Cn2c(cn(-c3noc4cc(C(F)(F)F)cc(-c5c(F)cc(F)cc5F)c34)c2=O)C1(F)F [Example 130, N-{(6R)-7,7-difluoro-3-oxo-2-[6-(trifluoromethyl)-4-(2,4,6-trifluorophenyl)-1,2-benzoxazol-3-yl]-2,5,6,7-tetrahydro-3H-pyrrolo[1,2-c]imidazol-6-yl}methanesulfonamide]"
4,94,"COCc1cc(-c2c(F)cccc2F)c2c(-n3cc4n(c3=O)C[C@@H](NS(C)(=O)=O)C4(F)F)noc2c1 [Example 132, N-{(6R)-2-[4-(2,6-difluorophenyl)-6-(methoxymethyl)-1,2-benzoxazol-3-yl]-7,7-difluoro-3-oxo-2,5,6,7-tetrahydro-3H-pyrrolo[1,2-c]imidazol-6-yl}methanesulfonamide]"
5,100,"CS(=O)(=O)N[C@@H]1Cn2c(cn(-c3noc4cc(F)c(F)c(-c5c(F)cc(F)cc5F)c34)c2=O)C1(F)F [Example 135, N-{(6R)-2-[5,6-difluoro-4-(2,4,6-trifluorophenyl)-1,2-benzoxazol-3-yl]-7,7-difluoro-3-oxo-2,5,6,7-tetrahydro-3H-pyrrolo[1,2-c]imidazol-6-yl}methanesulfonamide]"
6,99,"CS(=O)(=O)N[C@@H]1Cn2c(cn(-c3noc4cc(C(F)F)cc(-c5c(F)cccc5F)c34)c2=O)C1(F)F [Example 136, N-{(6R)-2-[6-(difluoromethyl)-4-(2,6-difluorophenyl)-1,2-benzoxazol-3-yl]-7,7-difluoro-3-oxo-2,5,6,7-tetrahydro-3H-pyrrolo[1,2-c]imidazol-6-yl}methanesulfonamide]"
7,101,"CNS(=O)(=O)N[C@@H]1Cn2c(cn(-c3noc4cc(F)cc(-c5c(F)cc(F)cc5F)c34)c2=O)C1(F)F [Example 139, N-{(6R)-7,7-difluoro-2-[6-fluoro-4-(2,4,6-trifluorophenyl)-1,2-benzoxazol-3-yl]-3-oxo-2,5,6,7-tetrahydro-3H-pyrrolo[1,2-c]imidazol-6-yl}-N′-methylsulfuric diamide]"
8,100,"Cc1cc(-c2c(F)cc(F)cc2F)c2c(N3C[C@H]4N(C[C@@H](NS(C)(=O)=O)C4(F)F)C3=O)noc2c1 [Example 140, N-{(6R,7aR)-7,7-difluoro-2-[6-methyl-4-(2,4,6-trifluorophenyl)-1,2-benzoxazol-3-yl]-3-oxohexahydro-1H-pyrrolo[1,2-c]imidazol-6-yl}methanesulfonamide]"
9,94,"CS(=O)(=O)N[C@@H]1Cn2c(cn(-c3noc4cc(C(F)F)cc(-c5c(F)cc(F)cc5F)c34)c2=O)C1(F)F [Example 141, N-{(6R)-2-[6-(difluoromethyl)-4-(2,4,6-trifluorophenyl)-1,2-benzoxazol-3-yl]-7,7-difluoro-3-oxo-2,5,6,7-tetrahydro-3H-pyrrolo[1,2-c]imidazol-6-yl}methanesulfonamide]"
10,102,"CNS(=O)(=O)N[C@@H]1CN2C(=O)N(c3noc4cc(F)cc(-c5c(F)cc(F)cc5F)c34)C[C@@H]2C1(F)F [Example 144, N-{(6R,7aR)-7,7-Difluoro-2-[6-fluoro-4-(2,4,6-trifluorophenyl)-1,2-benzoxazol-3-yl]-3-oxohexahydro-1H-pyrrolo[1,2-c]imidazol-6-yl}-N′-methylsulfuric diamide]"
11,105,"CCOc1cc(-c2c(F)cccc2F)c2c(N3C[C@H]4N(C[C@@H](NS(C)(=O)=O)C4(F)F)C3=O)noc2c1 [Example 145, N-{(6R,7aR)-2-[4-(2,6-difluorophenyl)-6-ethoxy-1,2-benzoxazol-3-yl]-7,7-difluoro-3-oxohexahydro-1H-pyrrolo[1,2-c]imidazol-6-yl}methanesulfonamide]"
